Assay results as given in ChEMBL document CHEMBL1158701, “Sesquiterpene phenylpropanoids from Ferula fukanensis and their nitric oxide production inhibitory effects” (J Nat Prod, 2005).
Active and inactive are the calls of the source. The rule behind the calls is not given here.

system: RAW264.7; experiment: Inhibition of LPS/IFNgamma -induced NO production in mouse RAW264.7 cells after 16 hrs; assay type: functional, cell-based; conditions: RAW264.7, 16 h

Compound	IC50 [µM]
CC(C)=CC(=O)/C=C(\C)CCC[C@@]1(C)OC(=O)[C@H](C(=O)c2ccc(O)cc2O)[C@H]1C (relative stereo) [FUKANEDONE C]	6.7
CCCCOC(=O)C(=O)c1ccc(O)cc1O [FUKANEKETOESTER A]	113
COc1ccc(C(=O)[C@H]2C(=O)O[C@](C)(CC/C=C(\C)Cc3cc(C)co3)[C@@H]2C)c(O)c1 (relative stereo) [FUKANEDONE E]	76.2
CC(C)=CC(=O)/C=C(/C)CCC[C@@]1(C)OC(=O)[C@H](C(=O)c2ccc(O)cc2O)[C@H]1C (relative stereo) [FUKANEDONE D]	27.8

system: RAW264.7; experiment: Inhibition of LPS/IFNgamma -induced NO production in mouse RAW264.7 cells at 30 ug/ml after 16 hrs; assay type: functional, cell-based; conditions: not given

Compound	Activity
COc1ccc(C(=O)[C@H]2C(=O)O[C@](C)(CC/C=C(\C)CCC=C(C)C)[C@@H]2C)c(O)c1 (relative stereo)	inactive
CC(C)=CCC/C(C)=C/CC[C@]1(C)OC(=O)[C@H](C(=O)c2ccc(O)cc2O)[C@H]1C (relative stereo)	inactive
